# Experimental data reported in patent US20050197350A1, “Novel quinoline, tetrahydroquinazoline, and pyrimidine derivatives and methods of treatment related to the use thereof” (TAISHO PHARMACEUTICAL CO., LTD., priority 2003, published 2005).
# Target: MCH receptor (Homo sapiens, UniProt Q99705)
# Test: High throughput functional screening FLIPR/FDSS6000 (intracellular Ca2+ evoked by MCH)
# Type: cell-based
# Settings: FLIPR/FDSS, antagonist activity vs 50 nM MCH; class by percent of control at 10^−7 M or IC50; read-out: class
# Procedure, shortened: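 For antagonist testing, compound-treated cells (30 min, 37 °C) were stimulated with 50 nM MCH and intracellular Ca2+ followed by Fluo4 fluorescence on FLIPR/FDSS6000. Receptor was a constitutively active, non-endogenous MCH receptor; dye loading 4 μM Fluo4-AM, 1 h, 37 °C.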
row,Compound,IC50 [nM]
1,"Cc1cnc(N[C@H]2CC[C@@H](C(=O)N[C@@H](C)c3ccc(OC(F)(F)F)cc3)CC2)nc1N(C)C [Example 3302, cis-4-{[4-(dimethylamino)-5-methylpyrimidin-2-yl]amino}-N-{(1S)-1-[4-(trifluoromethoxy)phenyl]ethyl}-cyclohexanecarboxamide]",< 50
2,"Cc1cnc(N[C@H]2CC[C@@H](C(=O)N[C@H](C)c3ccc(OC(F)(F)F)cc3)CC2)nc1N(C)C [Example 3303, cis-4-{[4-(dimethylamino)-5-methylpyrimidin-2-yl]amino}-N-{(1R)-1-[4-(trifluoromethoxy)phenyl]ethyl}-cyclohexanecarboxamide]",50 to 200
3,"Cc1cc(N[C@H]2CC[C@@H](C(=O)N[C@@H](C)c3ccc(Br)cc3)CC2)nc2ccccc12 [Example 3304, cis-N-[(1S)-1-(4-bromophenyl)ethyl]-4-[(4-methylquinolin-2-yl)amino]cyclohexanecarboxamide]",> 200
4,"Cc1cc(N[C@H]2CC[C@@H](C(=O)N[C@H](C)c3ccc(Cl)cc3)CC2)nc2ccccc12 [Example 3305, cis-N-[(1R)-1-(4-chlorophenyl)ethyl]-4-[(4-methylquinolin-2-yl)amino]cyclohexanecarboxamide]",50 to 200
5,"Cc1cc(N[C@H]2CC[C@@H](C(=O)N[C@@H](C)c3ccc(Cl)cc3)CC2)nc2ccccc12 [Example 3306, cis-N-[(1S)-1-(4-chlorophenyl)ethyl]-4-[(4-methylquinolin-2-yl)amino]cyclohexanecarboxamide]",50 to 200
6,"Cc1cc(N[C@H]2CC[C@@H](C(=O)N[C@H](C)c3cccc(C(F)(F)F)c3)CC2)nc2ccccc12 [Example 3307, cis-4-[(4-methylquinolin-2-yl)amino]-N-{(1R)-1-[3-(trifluoromethyl)phenyl]ethyl}cyclohexanecarboxamide]",< 50
7,"Cc1cnc(N[C@H]2CC[C@@H](C(=O)N[C@@H](C)c3ccc(Br)cc3)CC2)nc1N(C)C [Example 3308, cis-N-[(1S)-1-(4-bromophenyl)ethyl]-4-{[4-(dimethylamino)-5-methylpyrimidin-2-yl]amino}cyclohexanecarboxamide]",< 50
8,"Cc1cc(N[C@H]2CC[C@@H](C(=O)N[C@@H](C)c3cc(C(F)(F)F)cc(C(F)(F)F)c3)CC2)nc2ccccc12 [Example 3309, cis-N-{(1S)-1-[3,5-bis(trifluoromethyl)phenyl]ethyl}-4-[(4-methylquinolin-2-yl)amino]cyclohexanecarboxamide]",50 to 200
9,"Cc1cc(N[C@H]2CC[C@@H](C(=O)N[C@H](C)c3ccc(OC(F)(F)F)cc3)CC2)nc2ccccc12 [Example 3310, cis-4-[(4-methylquinolin-2-yl)amino]-N-{(1R)-1-[4-(trifluoromethoxy)phenyl]ethyl}cyclohexanecarboxamide]",> 200
10,"Cc1cc(N[C@H]2CC[C@@H](C(=O)N[C@H](C)c3ccccc3F)CC2)nc2ccccc12 [Example 3311, cis-N-[(1R)-1-(2-fluorophenyl)ethyl]-4-[(4-methylquinolin-2-yl)amino]cyclohexanecarboxamide]",> 200
11,"Cc1cc(N[C@H]2CC[C@@H](C(=O)N[C@@H](C)c3ccccc3F)CC2)nc2ccccc12 [Example 3312, cis-N-[(1S)-1-(2-fluorophenyl)ethyl]-4-[(4-methylquinolin-2-yl)amino]cyclohexanecarboxamide]",< 50
12,"Cc1cc(N[C@H]2CC[C@@H](C(=O)N[C@H](C)c3ccccc3C(F)(F)F)CC2)nc2ccccc12 [Example 3313, cis-4-[(4-methylquinolin-2-yl)amino]-N-{(1R)-1-[2-(trifluoromethyl)phenyl]ethyl}cyclohexanecarboxamide]",50 to 200
13,"Cc1cc(N[C@H]2CC[C@@H](C(=O)N[C@@H](C)c3ccccc3C(F)(F)F)CC2)nc2ccccc12 [Example 3314, cis-4-[(4-methylquinolin-2-yl)amino]-N-{(1S)-1-[2-(trifluoromethyl)phenyl]ethyl}cyclohexanecarboxamide]",< 50
14,"Cc1cc(N[C@H]2CC[C@@H](C(=O)N[C@@H](C)c3cccc(C(F)(F)F)c3)CC2)nc2ccccc12 [Example 3315, cis-4-[(4-methylquinolin-2-yl)amino]-N-{(1S)-1-[3-(trifluoromethyl)phenyl]ethyl}cyclohexanecarboxamide]",< 50
15,"COc1ccccc1NC(=O)N[C@H]1CC[C@@H](Nc2ncc(C)c(N(C)C)n2)CC1 [Example 3321, N-(cis-4-{[4-(dimethylamino)-5-methylpyrimidin-2-yl]amino}cyclohexyl)-N′-(2-methoxyphenyl)urea]",50 to 200
16,"COc1cccc(NC(=O)N[C@H]2CC[C@@H](Nc3ncc(C)c(N(C)C)n3)CC2)c1 [Example 3322, N-(cis-4-{[4-(dimethylamino)-5-methylpyrimidin-2-yl]amino}cyclohexyl)-N′-(3-methoxyphenyl)urea]",> 200
17,"COc1ccc(NC(=O)N[C@H]2CC[C@@H](Nc3ncc(C)c(N(C)C)n3)CC2)cc1OC [Example 3323, N-(3,4-dimethoxyphenyl)-N′-(cis-4-{[4-(dimethylamino)-5-methylpyrimidin-2-yl]amino}cyclohexyl)urea]",< 50

row,Compound,IC50 [nM]
1,"Cc1cnc(N[C@H]2CC[C@@H](NC(=O)Nc3ccccc3F)CC2)nc1N(C)C [Example 3324, N-(cis-4-{[4-(dimethylamino)-5-methylpyrimidin-2-yl]amino}cyclohexyl)-N′-(2-fluorophenyl)urea]",50 to 200
2,"Cc1cnc(N[C@H]2CC[C@@H](NC(=O)Nc3cccc(F)c3)CC2)nc1N(C)C [Example 3325, N-(cis-4-{[4-(dimethylamino)-5-methylpyrimidin-2-yl]amino}cyclohexyl)-N′-(3-fluorophenyl)urea]",50 to 200
3,"Cc1cnc(N[C@H]2CC[C@@H](NC(=O)Nc3ccc(F)cc3)CC2)nc1N(C)C [Example 3326, N-(cis-4-{[4-(dimethylamino)-5-methylpyrimidin-2-yl]amino}cyclohexyl)-N′-(4-fluorophenyl)urea]",< 50
4,"Cc1cnc(N[C@H]2CC[C@@H](NC(=O)Nc3ccc(F)c(F)c3)CC2)nc1N(C)C [Example 3327, N-(3,4-difluorophenyl)-N′-(cis-4-{[4-(dimethylamino)-5-methylpyrimidin-2-yl]amino}cyclohexyl)urea]",50 to 200
5,"Cc1cnc(N[C@H]2CC[C@@H](NC(=O)Nc3ccccc3OC(F)(F)F)CC2)nc1N(C)C [Example 3330, N-(cis-4-{[4-(dimethylamino)-5-methylpyrimidin-2-yl]amino}cyclohexyl)-N′-[2-(trifluoromethoxy)phenyl]urea]",< 50
6,"Cc1cnc(N[C@H]2CC[C@@H](NC(=O)Nc3ccc(F)c(Cl)c3)CC2)nc1N(C)C [Example 3331, N-(3-chloro-4-fluorophenyl)-N′-(cis-4-{[4-(dimethylamino)-5-methylpyrimidin-2-yl]amino}cyclohexyl)urea]",50 to 200
7,"Cc1cnc(N[C@H]2CC[C@@H](NC(=O)Nc3ccc(Cl)cc3)CC2)nc1N(C)C [Example 3333, N-(4-chlorophenyl)-N′-(cis-4-{[4-(dimethylamino)-5-methylpyrimidin-2-yl]amino}cyclohexyl)urea]",50 to 200
8,"Cc1cnc(N[C@H]2CC[C@@H](NC(=O)Nc3cc(C(F)(F)F)cc(C(F)(F)F)c3)CC2)nc1N(C)C [Example 3334, N-[3,5-bis(trifluoromethyl)phenyl]-N′-(cis-4-{[4-(dimethylamino)-5-methylpyrimidin-2-yl]amino}cyclohexyl)urea]",50 to 200
9,"Cc1cnc(N[C@H]2CC[C@@H](NC(=O)Nc3ccc(Br)cc3)CC2)nc1N(C)C [Example 3335, N-(4-bromophenyl)-N′-(cis-4-{[4-(dimethylamino)-5-methylpyrimidin-2-yl]amino}cyclohexyl)urea]",< 50
10,"Cc1ccccc1NC(=O)N[C@H]1CC[C@@H](Nc2ncc(C)c(N(C)C)n2)CC1 [Example 3336, N-(cis-4-{[4-(dimethylamino)-5-methylpyrimidin-2-yl]amino}cyclohexyl)-N′-(2-methylphenyl)urea]",50 to 200
11,"Cc1cnc(N[C@H]2CC[C@@H](NC(=O)Nc3ccc(Cl)c(Cl)c3)CC2)nc1N(C)C [Example 3337, N-(3,4-dichlorophenyl)-N′-(cis-4-{[4-(dimethylamino)-5-methylpyrimidin-2-yl]amino}cyclohexyl)urea]",50 to 200
12,"Cc1cnc(N[C@H]2CC[C@@H](NC(=O)Nc3ccc(Cl)cc3Cl)CC2)nc1N(C)C [Example 3338, N-(2,4-dichlorophenyl)-N′-(cis-4-{[4-(dimethylamino)-5-methylpyrimidin-2-yl]amino}cyclohexyl)urea]",50 to 200
13,"Cc1cnc(N[C@H]2CC[C@@H](NC(=O)Nc3cc(Cl)cc(Cl)c3)CC2)nc1N(C)C [Example 3339, N-(3,5-dichlorophenyl)-N′-(cis-4-{[4-(dimethylamino)-5-methylpyrimidin-2-yl]amino}cyclohexyl)urea]",50 to 200
14,"Cc1cnc(N[C@H]2CC[C@@H](NC(=O)NCc3ccccc3)CC2)nc1N(C)C [Example 3341, N-benzyl-N′-(cis-4-{[4-(dimethylamino)-5-methylpyrimidin-2-yl]amino}cyclohexyl)urea]",50 to 200
15,"Cc1cnc(N[C@H]2CC[C@@H](NC(=O)Nc3cc(Cl)ccc3Cl)CC2)nc1N(C)C [Example 3342, N-(2,5-dichlorophenyl)-N′-(cis-4-{[4-(dimethylamino)-5-methylpyrimidin-2-yl]amino}cyclohexyl)urea]",50 to 200
16,"Cc1cnc(N[C@H]2CC[C@@H](NC(=O)Nc3cccc(Cl)c3Cl)CC2)nc1N(C)C [Example 3343, N-(2,3-dichlorophenyl)-N′-(cis-4-{[4-(dimethylamino)-5-methylpyrimidin-2-yl]amino}cyclohexyl)urea]",> 200
17,"Cc1cnc(N[C@H]2CC[C@@H](NC(=O)Nc3c(Cl)cccc3C(F)(F)F)CC2)nc1N(C)C [Example 3344, N-[2-chloro-6-(trifluoromethyl)phenyl]-N′-(cis-4-{[4-(dimethylamino)-5-methylpyrimidin-2-yl]amino}cyclohexyl)urea]",> 200
